According to US11959095B2, “Compositions, cell constructs, and methods of making and using the same” (Wake Forest University Health Sciences, priority 2016, dated 2024):

Tests used:
U138 spheroids = test: WNT pathway modulation in GBM U138 spheroids in hydrogel; assay type: cell-based
Description: For the WNT experiments, spheroids of GBM U 138(ATCC® HTB-16™) cell line were formed by hanging drop method in a 96 well plate by using 10,000 cells per drop of 20 μl, which were cultured for 72 hours in high glucose DMEM before being harvested to be setup in HyStem HP-Hydrogels. The spheroids were placed sandwiched between two layers of gel of total volume of 250 μl. The spheroids were then given different media compositions. Normal high glucose media being the control, the spheroids behaviour in WNT pathway agonist BIO and WNT pathway antagonist XAV939 were studied.
Experiments were conducted with single cell cancer spheroids with U138 cells. The WNT pathway was manipulated by adding either an agonist of the WNT pathway BIO or an antagonist of the WNT pathway XAV939 to the media.

[1] = system: cells on S3 stiff hydrogel; test: Proliferation on S3 stiff hydrogel softened with collagenase, MTS assay; assay type: cell-based; details: gels softened on day 4 with collagenase (1:10 dilution) for 10 minutes, vs control gels
Description: In a 96 well plate, we placed 10,000 cells on two sets of nine wells of 50 ul S3 stiff hydrogel and the wells were filled with DMEM high glucose and cultured for a week. On day 4, one set of gels were softened using collagenase (1:10 dilution) for 10 minutes. Now proliferation of cells was compared between contol gels and softened gels using MTS assays on day 7.

[2] = system: cells on PEGSSDA hydrogel; test: Proliferation on PEGSSDA hydrogel softened with NAC, MTS assay; assay type: cell-based; details: gels softened on day 4 with NAC 100 mmol for 60 minutes, vs control gels
Description: In a 96 well plate, we placed 10,000 cells on two sets of nine wells of 50 ul PEGSSDA hydrogel and the wells were filled with DMEM high glucose and cultured for a week. On day 4, one set of gels were softened using NAC 100 mmol for 60 minutes. Now proliferation of cells was compared between control gels and softened gels using MTS assays on day 7.

liver organoids = test: APAP toxicity testing and N-acetyl-L-cysteine intervention in liver organoids; assay type: cell-based, human; details: 10 mM APAP plus 20 mM NAC
[3] = cited from earlier work

In the case of `O=C1Nc2cc(Br)ccc2/C1=C1/Nc2ccccc2/C1=N\O` [BIO], the “proliferation and migration in the spheroids” value (U138 spheroids; WNT pathway agonist added to the media) is reported as “shut down proliferation and migration”.
With collagenase the “proliferation of cells (MTS, day 7)” value [1] was “the same results were observed”.
In the case of `CC(=O)N[C@@H](CS)C(=O)O` [NAC, N-acetyl-L-cysteine], the “proliferation of cells (MTS, day 7)” value [2] is reported as “Reduced proliferation”, the detected urea production (liver organoids) is reported as “increased over time” and the detected albumin production (liver organoids; day 14) is reported as 98 ng/mL.
In the case of `Cn1nnc2c(C(N)=O)ncn2c1=O` [TMZ, temozolomide], the “concentrations in the cerebrospinal fluid (CSF) relative to plasma” value ([3]; CSF vs plasma) is listed as “approximately 20%” and the “peak CSF concentrations” value ([3]; CSF) is listed as 26 ± 4 µM.
For `Oc1nc(-c2ccc(C(F)(F)F)cc2)nc2c1CSCC2` [XAV939], the “cancer cells' phenotype (morphology)” value (U138 spheroids; WNT pathway antagonist added to the media) was “more epithelial appearance than a mesenchymal appearance”.
